Measured values taken from patent US20070117858A1, “SUBSTITUTED 5-HETEROARYL-1-PHENYL-PYRAZOLE CANNABINOID MODULATORS” (priority 2005, published 2007).

What was measured:
human CB1 receptor = biological target: T1, human CB1 receptor (Homo sapiens, UniProt P21554); test: Cannabinoid CB1 receptor binding assay ([3H]-CP-55,940 displacement, SK-N-MC cell membranes); details: for inhibition at 0.2 µM: 1.5 h, read-out: Cannabinoid CB1 Receptor Binding, percent inhibition
T1 construct: expressed in transfected cells; host or cells: SK-N-MC cells, stably transfected with pcDNA3 CB-1 (human); semi-purified membrane pellet
T1 sequence (P21554 whole entry): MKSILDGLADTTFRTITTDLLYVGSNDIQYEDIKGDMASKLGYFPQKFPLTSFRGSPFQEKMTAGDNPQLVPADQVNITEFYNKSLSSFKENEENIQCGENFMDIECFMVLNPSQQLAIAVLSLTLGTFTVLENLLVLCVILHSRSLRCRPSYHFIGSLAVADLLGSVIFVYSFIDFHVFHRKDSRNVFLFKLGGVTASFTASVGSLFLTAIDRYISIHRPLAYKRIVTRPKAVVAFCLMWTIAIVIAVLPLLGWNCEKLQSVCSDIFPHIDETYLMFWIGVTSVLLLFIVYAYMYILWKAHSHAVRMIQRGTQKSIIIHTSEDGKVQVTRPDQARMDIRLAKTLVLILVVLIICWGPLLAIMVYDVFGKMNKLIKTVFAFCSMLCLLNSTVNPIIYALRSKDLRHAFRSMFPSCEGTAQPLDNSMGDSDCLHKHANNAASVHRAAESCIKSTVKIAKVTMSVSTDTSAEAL
Method: (§1) Binding Assay for CB1 or CB2 Agonists or Inverse Agonists
(§2) The human CB1 and CB2 receptors were stably expressed in SK-N-MC cells transfected with pcDNA3 CB-1 (human) or pcDNA3 CB-2 (human). The cells were grown in T-180 cell culture flasks under standard cell culture conditions at 37° C. in a 5% CO2 atmosphere. The cells were harvested by trysinization and homogenized in a homogenization buffer (10 mM Tris, 0.2 mM MgCl2, 5 mM KCl, with protease inhibitors aprotinin, leupeptin, pepstatin A and bacitracin) and centrifuged (2000 g). The supernatant was then centrifuged in 2M sucrose (31,300 g) to produce a semi-purified membrane pellet. The pellet was resuspended in homogenization and stored at −80° C.
(§3) On the day of the assay, the pellet was thawed on ice and diluted in assay buffer (50 mM Tris-HCl, 5 mM MgCl2, 2.5 mM EDTA, 0.5 mg/mL fatty acid free bovine serum albumin, pH 7.5). The diluted membrane pellet was added with buffer, either a test compound or vehicle standard and the radioligand […] (0.2 nM) to the wells of a 96-well polypropylene plate. Non-specific binding was measured in wells containing W1N 55,212 (10 uM). The plate was covered and incubated for 90 minutes at 30° C. The contents were then aspirated onto a Packard Unifilter GF/C filter bottom plate prewet with 0.5% polyethyleneimine. The wells of the polypropylene plate were rinsed and aspirated seven times with a 0.9% saline-0.5% Tween 20 solution. The Unifilter plate was dried, scintillation cocktail was added to each well and the counts representing binding were quantitated in a TopCount scintillation counter.
(§4) For compounds tested, an IC50 binding value was obtained from percent inhibition studies in which various test concentrations were used. The binding value was calculated by linear regression.
(§5) For compounds without an IC50 binding value, the percent inhibition (%) was obtained at a test concentration of 0.2 μM.

human CB2 receptor = biological target: T2, human CB2 receptor (Homo sapiens, UniProt P34972); test: Cannabinoid CB2 receptor binding assay ([3H]-CP-55,940 displacement, SK-N-MC cell membranes); details: 1.5 h; test concentration of 0.2 μM; radioligand CP-55,940 0.2 nM; read-out: Cannabinoid CB2 Receptor Binding, percent inhibition
T2 construct: expressed in transfected cells; host or cells: SK-N-MC cells, stably transfected with pcDNA3 CB-2 (human); semi-purified membrane pellet
T2 sequence (P34972 whole entry): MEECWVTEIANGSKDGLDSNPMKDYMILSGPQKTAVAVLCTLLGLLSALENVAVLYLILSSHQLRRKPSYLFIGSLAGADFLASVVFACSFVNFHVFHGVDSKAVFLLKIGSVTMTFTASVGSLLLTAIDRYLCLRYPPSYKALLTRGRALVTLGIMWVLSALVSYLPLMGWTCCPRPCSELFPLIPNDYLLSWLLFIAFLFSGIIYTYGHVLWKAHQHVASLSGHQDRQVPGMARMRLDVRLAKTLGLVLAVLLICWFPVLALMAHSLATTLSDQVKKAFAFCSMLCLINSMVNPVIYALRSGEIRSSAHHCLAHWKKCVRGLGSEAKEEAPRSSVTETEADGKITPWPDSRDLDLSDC
Method: as §1, §2, §3, §4, §5

Compound | IC50 (human CB1 receptor) [nM] | inhibition at 0.2 µM (human CB2 receptor) [%] | inhibition at 0.2 µM (human CB1 receptor) [%]
Cc1c(C(=O)N[C@@H](C)C2CCCCC2)nn(-c2ccc(Cl)cc2Cl)c1-c1ccc(I)s1 [Cpd 39, 1-(2,4-dichloro-phenyl)-5-(5-iodo-thiophen-2-yl)-4-methyl-1H-pyrazole-3-carboxylic acid [(1S)-1-cyclohexyl-ethyl]-amide] | 18 | – | –
Cc1c(C(=O)N[C@H](C)c2ccccc2)nn(-c2ccc(Cl)cc2Cl)c1-c1ccc(F)s1 [Cpd 32, 1-(2,4-dichloro-phenyl)-5-(5-fluoro-thiophen-2-yl)-4-methyl-1H-pyrazole-3-carboxylic acid [(1R)-1-phenyl-ethyl]-amide] | 46 | 55 | –
Cc1c(C(=O)NN2CCCCC2)nn(-c2ccc(Cl)cc2Cl)c1-c1cc(Br)cs1 [Cpd 44, 5-(4-bromo-thiophen-2-yl)-1-(2,4-dichloro-phenyl)-4-methyl-1H-pyrazole-3-carboxylic acid piperidin-1-ylamide] | – | 53 | 74
CCc1c(C(=O)N[C@@H](C)c2ccccc2)nn(-c2ccc(Cl)cc2Cl)c1-c1ccc(Br)s1 [Cpd 42, 5-(5-bromo-thiophen-2-yl)-1-(2,4-dichloro-phenyl)-4-ethyl-1H-pyrazole-3-carboxylic acid [(1S)-1-phenyl-ethyl]-amide] | 11 | 38 | –
Cc1c(C(=O)NN2CC3CCCC3C2)nn(-c2ccc(Cl)cc2Cl)c1-c1cccs1 (stereo not shown) [Cpd 11, 1-(2,4-dichloro-phenyl)-4-methyl-5-thiophen-2-yl-1H-pyrazole-3-carboxylic acid (hexahydro-cyclopenta[c]pyrrol-2-yl)-amide] | – | 0 | 53
C[C@@H](NC(=O)c1nn(-c2ccc(Cl)cc2Cl)c(-c2cccs2)c1C#N)C1CCCCC1 [Cpd 18, 4-cyano-1-(2,4-dichloro-phenyl)-5-thiophen-2-yl-1H-pyrazole-3-carboxylic acid [(1R)-1-cyclohexyl-ethyl]-amide] | – | 21 | 66
C[C@@H](NC(=O)c1nn(-c2ccc(Cl)cc2Cl)c(-c2ccc(Cl)s2)c1C#N)c1ccccc1 [Cpd 25, 5-(5-chloro-thiophen-2-yl)-4-cyano-1-(2,4-dichloro-phenyl)-1H-pyrazole-3-carboxylic acid [(1R)-1-phenyl-ethyl]-amide] | 16 | 13 | –
Cc1c(C(=O)N[C@@H](C)C2CCCCC2)nn(-c2ccc(Cl)cc2Cl)c1-c1ccc(F)s1 [Cpd 33, 1-(2,4-dichloro-phenyl)-5-(5-fluoro-thiophen-2-yl)-4-methyl-1H-pyrazole-3-carboxylic acid [(1S)-1-cyclohexyl-ethyl]-amide] | – | 41 | 73
Cc1c(C(=O)N[C@@H](C)C2CCCCC2)nn(-c2ccc(Cl)cc2Cl)c1-c1cccs1 [Cpd 8, 1-(2,4-dichloro-phenyl)-4-methyl-5-thiophen-2-yl-1H-pyrazole-3-carboxylic acid [(1S)-1-cyclohexyl-ethyl]-amide] | – | 1 | 34
N#Cc1c(C(=O)N2CCCCC2)nn(-c2ccc(Cl)cc2Cl)c1-c1cccs1 [Cpd 21, 1-(2,4-dichloro-phenyl)-3-(piperidine-1-carbonyl)-5-thiophen-2-yl-1H-pyrazole-4-carbonitrile] | – | 3 | 12
Cc1c(C(=O)NN2CCCCC2)nn(-c2ccc(Cl)cc2Cl)c1-c1ccc(I)s1 [Cpd 29, 1-(2,4-dichloro-phenyl)-5-(5-iodo-thiophen-2-yl)-4-methyl-1H-pyrazole-3-carboxylic acid piperidin-1-ylamide] | 17 | 55 | –
C[C@@H](NC(=O)c1nn(-c2ccc(Cl)cc2Cl)c(-c2ccc(Cl)s2)c1C#N)c1ccccn1 [Cpd 27, 5-(5-chloro-thiophen-2-yl)-4-cyano-1-(2,4-dichloro-phenyl)-1H-pyrazole-3-carboxylic acid [(1R)-1-pyridin-2-yl-ethyl]-amide] | – | 12 | 69
Cc1c(C(=O)N[C@@H](C)c2ccccc2)nn(-c2ccc(Cl)cc2Cl)c1-c1cc(Br)cs1 [Cpd 46, 5-(4-bromo-thiophen-2-yl)-1-(2,4-dichloro-phenyl)-4-methyl-1H-pyrazole-3-carboxylic acid [(1S)-1-phenyl-ethyl]-amide] | – | 47 | 52
Cc1c(C(=O)N[C@H](C)c2ccccc2)nn(-c2ccc(Cl)cc2Cl)c1-c1cc(Br)cs1 [Cpd 49, 5-(4-bromo-thiophen-2-yl)-1-(2,4-dichloro-phenyl)-4-methyl-1H-pyrazole-3-carboxylic acid [(1R)-1-phenyl-ethyl]-amide] | – | 63 | 76
Cc1c(C(=O)N[C@@H](C)C2CCCCC2)nn(-c2ccc(Cl)cc2Cl)c1-c1ccc(Cl)s1 [Cpd 12, 5-(5-chloro-thiophen-2-yl)-1-(2,4-dichloro-phenyl)-4-methyl-1H-pyrazole-3-carboxylic acid [(1S)-1-cyclohexyl-ethyl]-amide] | 15 | 40 | –
C[C@@H](NC(=O)c1nn(-c2ccc(Cl)cc2Cl)c(-c2cccs2)c1C#N)c1ccccc1 [Cpd 16, 4-cyano-1-(2,4-dichloro-phenyl)-5-thiophen-2-yl-1H-pyrazole-3-carboxylic acid [(1R)-1-phenyl-ethyl]-amide] | – | 17 | 61
Cc1c(C(=O)N[C@@H](C)c2ccccn2)nn(-c2ccc(Cl)cc2Cl)c1-c1ccc(Cl)s1 [Cpd 1, 5-(5-chloro-thiophen-2-yl)-1-(2,4-dichloro-phenyl)-4-methyl-1H-pyrazole-3-carboxylic acid [(1S)-1-pyridin-2-yl-ethyl]-amide] | 38 | – | –
Cc1c(C(=O)N[C@@H](C)c2ccccn2)nn(-c2ccc(Cl)cc2Cl)c1-c1ccc(I)s1 [Cpd 37, 1-(2,4-dichloro-phenyl)-5-(5-iodo-thiophen-2-yl)-4-methyl-1H-pyrazole-3-carboxylic acid [(1S)-1-pyridin-2-yl-ethyl]-amide] | 31 | – | –
Cc1c(C(=O)N[C@H](C)c2ccccc2)nn(-c2ccc(Cl)cc2Cl)c1-c1ccc(I)s1 [Cpd 38, 1-(2,4-dichloro-phenyl)-5-(5-iodo-thiophen-2-yl)-4-methyl-1H-pyrazole-3-carboxylic acid [(1R)-1-phenyl-ethyl]-amide] | 23 | – | –
Cc1c(C(=O)N[C@@H](C)c2ccccc2)nn(-c2ccc(Cl)cc2Cl)c1-c1ccc(I)s1 [Cpd 36, 1-(2,4-dichloro-phenyl)-5-(5-iodo-thiophen-2-yl)-4-methyl-1H-pyrazole-3-carboxylic acid [(1S)-1-phenyl-ethyl]-amide] | 17 | – | –
Cc1c(C(=O)N[C@@H](C)c2ccccc2)nn(-c2ccc(Cl)cc2Cl)c1-c1ccc(Cl)s1 [Cpd 3, 5-(5-chloro-thiophen-2-yl)-1-(2,4-dichloro-phenyl)-4-methyl-1H-pyrazole-3-carboxylic acid [(1S)-1-phenyl-ethyl]-amide] | 35 | – | –
Cc1c(C(=O)NN2CCCCC2)nn(-c2ccc(Cl)cc2Cl)c1-c1ccc(Cl)s1 [Cpd 2, 5-(5-chloro-thiophen-2-yl)-1-(2,4-dichloro-phenyl)-4-methyl-1H-pyrazole-3-carboxylic acid piperidin-1-ylamide] | 40 | – | –
